Patent US9351971B2, “Substituted 2,2′-biphenazines for treating diseases” (Eutropics Pharmaceuticals, Inc., priority 2010, dated 2016)
“Also recorded” adds a separate entry of the source.

How the values were obtained:
Bcl-xL = target: T1, Bcl-xL (Homo sapiens, UniProt Q07817); test: Fluorescence polarization assay, Bim BH3 peptide binding to GST-Bcl-xL; settings: Bim-BH3-FITC peptide, read-out: IC50, inhibition of Bim-BH3 peptide binding to Bcl-xL
T1 construct: made in house; host or cells: E. coli
From the text: A nineteen amino acid peptide, corresponding to the BH3 domain of Bim, with the sequence FITC-GGGIAQELRRIGDEFNAY (SEQ ID NO: 1) was labeled with the tluorophore FITC according to the manufacturer's instructions (Molecular Probes, Eugene, Oreg.). This sequence was identified as being able to bind to purified Bcl-xL protein (Sattler et al. (1997) Science 275(5302): 983-86) and to have biological activity in cells (Holinger et al. J. Biol. Chem. 274; 13298-1330).
In addition, recombinant GST -Mcl-1 and GST-Bcl-xL fusion proteins were generated in E.coli and purified using glutathione-sepharose beads using conventional techniques known to those skilled in the fields of biochemistry and molecular biology, (methods for preparation are described in Strategies for Protein Purification and Characterization, Marshak, D, Kadonga, J, Burgess R, Knuth, M, Brennan, W, Sue-Hwa, L, CSH press, Cold Spring Harbor, N.Y.). Binding of the recombinant proteins to the fluorescent Bim BH3 domain was confirmed by titration of increasing concentrations of the recombinant proteins against a constant amount of labeled Bim peptide (16.65 nM). Quantitation of binding was accomplished by FP assay with mP measurements made on the Analyst-GT reader (Molecular Devices, Sunnyvale, Calif.).
Further, the ability of compound A to disrupt the interaction between the fluorescent Bim BH3 peptide and the two fusion proteins was assessed using a fluorescence polarization assay. […]
(§1) Experiments are performed using the fluorescence polarization assay as described in Example 2. […] The IC50 for blocking each BH3 peptide from Mcl-1 are assessed using FP, as described in Example 2.
as §1

SUDHL-10 cell line = test: Cell viability MTS assay, SUDHL-10 (Bax/Bak deficient); type: cell-based, human
Method: The lymphoid derived cell lines DHL-6 and DHL-10 were obtained from Anthony Letai of the Dana Father Cancer Research Institute, Boston, Mass. The […] derived cell line NCP-H929 was obtained irons, the NIH/NCI cell repository. AML-3 cells were obtained from Dr. Michael Andreef (MD Anderson Cancer Center, Houston, Tex.). Cells were grown in RPMI 1640 medium (GIBCO-BRL) supplemented with Pen-strep-glutamine (Gibco 10378) and 5% fetal bovine serum.
Cells were expanded in tissue culture in appropriate media and then subcultured into 96-well plates at a seeding density of 20,000-40,000 cells per well, and cells were treated with one or more compounds that were titrated info appropriate medium with FCS. Cell lines were treated with compound A at concentrations ranging from 25 μM to 25 nM. The BH3-mimetic obatoclax (Nguyen M et al. (2007), Proc. Natl. Acad. Sci. USA 104:19512-19517) was also tested against the SUDHL-6, SUDHL-10, and NCI-H929 cell lines. Cells were treated for 48 hours and scored for viability using the MTS assay (Promega). Growth inhibition was indicated as a percentage of control cell growth. Growth was determined by measuring the A570 (control cells)—A570 (treated cells)/A570 (control cells). EC50 values were calculated using Graphpad Prizm software.

[1] = system: mitochondria in semi-permeabilized SUDHL-10 cells; test: In situ mitochondrial assay (cytochrome c release), SUDHL-10; type: cell-based; settings: SUDHL-10 (DHL-10), Bax/Bak deficient, 10 uM
From the text: The on-target activity of compound II-19 was validated. Changes in mitochondrial integrity were observed utilizing anti-cytochrome c conjugated to Alcxa488 (BD). When the mitochondria are intact, they retain cytochrome c and have bright, punctate staining with the antibody whereas cells with compromised mitochondrial integrity will lose cytochrome c and will not stain with the antibody. This can be observed by microscopy as well as measured by a shift in fluorescence on the FL1 channel of a flow cytometer.
The selective response of mitochondria in semi-permeabilized cell lines to the compounds was observed. The assay was adapted from (Campos et al. (2006) Cytometry Part A. 69(A):515-523).
Suspension cell lines SUDHL10 and SUDHL6 were grown in RPMI, washed once in 1xPBS and re-suspended at a concentration of 2e6/ml in assay buffer with 0.0025% Digitonin. Assay buffer; 300 mM Trehalose, 10 mM HEPES-KOH pH 7.7, 80 mM KCl, 1 mM EGTA, 1 mM EDTA, 0.1% BSA, 5 mM Succinate. Cells are incubated with test and control compounds at 10^6 cells/treatment for 1 hour at room temperature. […] Cytochrome c loss was measured by microscopy. At least 100 cells per treatment were counted and scored as positive for cytochrome c loss if they lacked staining. In both methods DMSO was calculated as 0% cytochrome c loss and the Bim response for DHL6 was used to determine 100% cytochrome c loss.

T1 sequence (Q07817 whole entry): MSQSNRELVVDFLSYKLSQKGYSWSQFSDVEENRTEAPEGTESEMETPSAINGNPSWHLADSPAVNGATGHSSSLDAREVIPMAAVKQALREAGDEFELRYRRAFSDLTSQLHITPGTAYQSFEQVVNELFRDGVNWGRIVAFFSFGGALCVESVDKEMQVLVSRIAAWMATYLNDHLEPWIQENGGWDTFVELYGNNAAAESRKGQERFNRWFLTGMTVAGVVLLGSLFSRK

For `COC(=O)c1ccc(O)c2nc3c(C=O)c(O)c(-c4c(O)c(C=O)c5nc6c(O)ccc(C(=O)OC)c6nc5c4O)c(O)c3nc12` [II-19, dimethyl 4,4′-diformyl-1,1′,3,3′,6,6′-hexahydroxy-[2,2′-biphenazine]-9,9′-dicarboxylate], the IC50 (Bcl-xL) was 15 nM, the EC50 (SUDHL-10 cell line; Homo sapiens, SU-DHL10, 48 hours, MTS assay, Bax/Bak deficient cell line, read-out: EC50, cell killing in SUDHL-10) was > 20000 nM and the “activity against the Bax/Bak deficient cell line SUDHL-10 (in words)” value (SUDHL-10 cell line; cell killing, FIG. 4d) was “absence of activity”. For the same compound, the “cytochrome c release from mitochondria” value [1] was “but not BAX/BAK-deficient SUDHL-10 cell line; also recorded: lack of activity”.
